In article PMC12843386, “Ly6/uPAR Protein from Asterias rubens Starfish Stimulates Migration and Invasion of Human Epithelial and Immune Cells” (Marine Drugs, 2025):
Like-named read-outs stand apart in the source and are kept apart here. Bridges are numbered along the chain shown (N, C = ends). Where no end group is shown, it is not given here.

Assays:
HaCaT keratinocytes = experiment: Wound-healing (scratch) assay, collective migration of HaCaT keratinocytes; format: cell-based, human; settings: 10 µM peptide, 24 h, serum-free; % of untreated control; n = 14 (Figure 4a,b)
Procedure: Human HaCaT keratinocytes (ATCC, Manassas, VA, USA) were grown (37 °C, 8% CO2) in a DME medium with phenol red (PanEco, Moscow, Russia), 10% fetal calf serum (Thermo Fisher Scientific, Waltham, […], USA), and 2 mM L-glutamine (PanEco). Human peripheral blood monocytes were isolated from human donors’ blood (informed written consent was obtained from the donors) with Lymphosep media (MP Biomedicals, Irvine, CA, USA) and cultivated in RPMI-1640 medium with phenol red (PanEco, Russia), 10% fetal calf serum (Thermo Fisher Scientific), and 2 mM L-glutamine (PanEco). All cells were routinely tested for the absence of mycoplasma contamination (Mycoreport kit, Evrogen, Moscow, Russia).
The in vitro wound healing (scratch) assay was performed as described in [35]. In brief, HaCaT cells were seeded in 96-well cell culture plates (5 × 10^4 cells/well) and grown for 24 h. […] Pictures were analyzed after 0 and 24 h at 20× magnification at CloneSelect Imager (Molecular Devices, San Jose, CA, USA). The center of the plate was marked as a central reference point to ensure that the same area was recorded during the time course. Digital images were taken, and the scratch area was quantified using ImageJ 1.54f software (NIH, Bethesda, MD, USA) and MS Excel 365 (Microsoft, Redmond, WA, USA) software by measuring the % of the scratch surface occupied by migrating cells.

[1] = ELISA binding to immobilized membrane fraction of A. rubens arm tip; set-up: species or system Asterias rubens; settings: detection by anti-Lystar5 serum, n = 4 (Figure 3b)
Excerpt: Figure 2 Design of the peptides mimicking the loop and “head” regions of Lystar5 and ELISA experiments. (a) Amino acid sequence alignment of Lystar5 and the peptides: loop I (rose), loop II (orange), loop III (blue), and head (green). Cys residues are shown in gold. Disulfide bonds are shown in brackets. Sequences of the peptides are highlighted by colors corresponding to the Lystar5 loops. The amino acids changed to increase the peptides’ stability are designated by lowercase letters. (b) Spatial structure of Lystar5 predicted from the sequence using ESMFold with regions corresponding to the synthesized peptides colored as shown in panel (a,c). Design of ELISA experiments for proof of detection of Lystar5 and the peptides by the anti-Lystar5 serum of immunized mice (left), identification of the active site of Lystar5, and evaluation of the interaction of Lystar5 and the peptides using the immobilized membrane fraction of different A. rubens tissues (center), and study of complex formation between nAChR and integrin subunits in HaCAT keratinocytes (right). […] Recombinant analogue of Lynx2 was used as a negative control. […] Bound compounds were detected by the anti-Lystar5 serum of immunized mouse. […]

[2] = cited from earlier work
Excerpt: Ly6/uPAR proteins from different organisms are currently being considered as prototypes for new drugs.

## GEDGCTAATTQLGKRYFADKSRPAWGAVECG (disulfide 5-30 (inferred)) [loop III, C-amidated peptide mimicking loop III of Lystar5: […]]
HaCaT keratinocytes
  collective migration of HaCaT keratinocytes (scratch assay), wound closure: did not affect the collective migration

## VLKTCTSRQDRCG (disulfide 5-12 (inferred)) [head, C-amidated peptide mimicking the "head" region of Lystar5: […]]
[1]
  binding to the immobilized membrane fraction of the arm tip: neither Lystar5 nor its loops or “head” bound
HaCaT keratinocytes
  collective migration of HaCaT keratinocytes (scratch assay), wound closure: did not affect the collective migration

## α-cobratoxin
[2]; snake toxin from Naja kaouthia, ref [45]
  anti-cancer activity: effective anti-cancer agents

B1: SLURP-1: human-secreted epithelial protein SLURP-1 (protein, UniProt P55000 23-103, looked up)
Secreted Ly-6/uPAR-related …: LKCYTCKEPMTSASCRTITRCKPEDTACMTTLVTVEAEYPFNQSPVVTRSCSSSCVATDPDSIGAAHLIFCCFRDLCNSEL
[2]; human-secreted epithelial protein, ref [46]
  anti-cancer activity: effective anti-cancer agents

B2: Lynx1: human protein Lynx1 found in the nervous system, skin, and lungs (protein, UniProt P0DP58 21-91, looked up)
Ly-6/neurotoxin-like protein 1: LDCHVCAYNGDNCFNPMRCPAMVAYCMTTRTYYTPTRMKVSKSCVPRCFETVYDGYSKHASTTSCCQYDLC
[2]; human protein found in the nervous system, skin, and lungs, ref [47],[48]
  anti-cancer activity: effective anti-cancer agents
[2]; ref [49]
  cognitive dysfunctions related to the cholinergic system decline: ameliorates cognitive dysfunctions
